Experimental data as given in ChEMBL document CHEMBL4266008, “Exploring Halogen Bonds in 5-Hydroxytryptamine 2B Receptor-Ligand Interactions” (ACS Med Chem Lett, 2018).
Calls of active or inactive are those of the source. The rule behind the calls is not given here.

Experiments:
[1] = biological target: T1, 5-hydroxytryptamine receptor 2B (Homo sapiens, UniProt P41595); test: (§1) Antagonist activity at 5HT2B (unknown origin) expressed in CHOK1 cells assessed as inhibition of agonist-induced effect preincubated for 60 mins at 37 degC followed by 15 mins incubation at room temperature and subsequent agonist addition measured for 100 secs by fluorescence assay; assay type: functional, cell-based
[2] = biological target: T1, 5-hydroxytryptamine receptor 2B; test: Displacement of [3H]LSD from 5HT2B (unknown origin) after 1.5 hrs by microbeta scintillation counting method
Mus musculus [3] = test: Protection against castor oil-induced diarrhea in C57BL/6 mouse assessed as improvement in stool consistency at 10 mg/kg, po pretreated for 15 mins followed by castor oil addition measured over 4 hrs; assay type: functional, organism-based
Mus musculus [4] = test: Protection against castor oil-induced diarrhea in C57BL/6 mouse assessed as improvement in fecal output at 10 mg/kg, po pretreated for 15 mins followed by castor oil addition measured over 4 hrs; assay type: functional, organism-based
Mus musculus [5] = test: Protection against castor oil-induced diarrhea in C57BL/6 mouse assessed as improvement in body weight at 10 mg/kg, po pretreated for 15 mins followed by castor oil addition measured over 4 hrs; assay type: functional, organism-based
[6] = biological target: T1, 5-hydroxytryptamine receptor 2B; test: as §1, with “effect at 10 uM” for “effect”, “assay relative to control” for “assay”; assay type: functional, cell-based

T1 sequence (P41595 whole entry): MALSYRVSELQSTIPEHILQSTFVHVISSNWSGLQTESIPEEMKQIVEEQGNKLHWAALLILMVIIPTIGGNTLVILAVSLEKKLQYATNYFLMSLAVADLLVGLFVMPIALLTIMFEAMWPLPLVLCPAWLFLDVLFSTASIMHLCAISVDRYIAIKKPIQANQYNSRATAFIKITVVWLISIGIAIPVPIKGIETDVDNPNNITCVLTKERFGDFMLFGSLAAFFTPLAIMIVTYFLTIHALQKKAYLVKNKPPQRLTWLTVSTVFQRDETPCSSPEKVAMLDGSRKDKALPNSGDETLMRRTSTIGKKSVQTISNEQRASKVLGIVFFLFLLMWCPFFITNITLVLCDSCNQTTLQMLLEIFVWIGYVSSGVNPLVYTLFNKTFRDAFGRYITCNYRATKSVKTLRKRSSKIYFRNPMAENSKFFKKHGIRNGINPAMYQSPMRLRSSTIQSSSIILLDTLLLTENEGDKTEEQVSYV

| IC50 [1] [nM] | Ki [2] [nM] | Compound | other results |
| --- | --- | --- | --- |
| 1960 | – | CCOC(=O)c1cc(Br)cc(NC2=NC(N)=NC3(CCCCC3)N2)c1 | – |
| 23.3 | 1.7 | NC1=NC2(CCCCC2)NC(Nc2cccc(I)c2)=N1 | – |
| – | – | CN(C)CC/C=C1\c2ccccc2COc2ccccc21 [E-DOXEPIN] | Activity (Mus musculus [3]): Active; Activity (Mus musculus [4]): Active |
| 46.9 | 6.3 | NC1=NC2(CCCCC2)NC(Nc2cccc(Cl)c2)=N1 | – |
| 403 | 53.3 | NC1=NC2(CCCCC2)NC(Nc2cccc(F)c2)=N1 | – |
| 459 | 19.8 | Cc1cccc(NC2=NC(N)=NC3(CCCCC3)N2)c1 | – |
| – | 2.5 | CN(C)CC/C=C1\c2ccc(Br)cc2COc2ccccc21 | Activity (Mus musculus [3]): Active; Activity (Mus musculus [4]): Active; Activity (Mus musculus [5]): Active |
| 215 | – | NC1=NC2(CCCCC2)NC(Nc2cc(Br)cc(Br)c2)=N1 | – |
| – | 16.6 | CN(C)CC/C=C1\c2ccc(F)cc2COc2ccccc21 | – |
| 1640 | 151 | NC1=NC2(CCCCC2)NC(Nc2ccccc2)=N1 | – |
| – | 313 | NC1=NC2(CCCCC2)NC(Nc2cccc(O)c2)=N1 | inhibition [6]: < 50% |
| 74.9 | – | NC1=NC2(CCCCC2)NC(Nc2cc(F)cc(Br)c2)=N1 | – |
| 35.4 | 5.8 | NC1=NC2(CCCCC2)NC(Nc2cccc(Br)c2)=N1 | – |
| – | 3 | CN(C)CC/C=C1\c2ccc(Cl)cc2COc2ccccc21 | – |
